Measurements reported in US11286256B2, “Bicyclic inhibitors of histone deacetylase” (Alkermes, Inc., priority 2017, dated 2022).

How the values were obtained:
[1] = molecular target: T1, CYP2D6 (Homo sapiens, UniProt P10635); assay: CYP inhibition assay in human liver microsomes (2D6); assay type: in vitro ADME; conditions: for inhibition at 10 min, 10 µM: human liver microsomes; for inhibition of CYP2D6 (in words): 10 μM
T1 construct: Human liver microsomes were obtained from BD Gentest; tissue BD Gentest; host or cells: human liver microsomes
T1 sequence (P10635 whole entry): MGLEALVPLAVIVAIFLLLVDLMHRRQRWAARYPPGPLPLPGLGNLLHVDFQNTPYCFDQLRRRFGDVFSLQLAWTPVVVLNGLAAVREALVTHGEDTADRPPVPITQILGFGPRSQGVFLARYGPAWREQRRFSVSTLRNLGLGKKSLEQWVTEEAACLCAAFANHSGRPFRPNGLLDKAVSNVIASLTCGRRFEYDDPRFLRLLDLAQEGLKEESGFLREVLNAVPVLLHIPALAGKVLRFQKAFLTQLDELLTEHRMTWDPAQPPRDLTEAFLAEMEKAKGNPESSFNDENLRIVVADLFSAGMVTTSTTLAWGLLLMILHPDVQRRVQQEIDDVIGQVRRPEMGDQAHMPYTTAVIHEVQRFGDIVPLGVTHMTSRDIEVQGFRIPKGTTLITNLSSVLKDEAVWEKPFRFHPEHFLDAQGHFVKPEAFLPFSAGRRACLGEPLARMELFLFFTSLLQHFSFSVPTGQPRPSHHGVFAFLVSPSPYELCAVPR
Experimental: Compounds were tested to evaluate their inhibitory potential on CYP2D6 and CYP3A4 (midazolam) using human liver microsomes. Human liver microsomes were obtained from BD Gentest, and each compound was run in duplicate.
The test compounds and reference inhibitors (quinidine for 2D6, ketoconazole for 3A4) were plated in a 96-well plate by transferring 8 μL of 10 mM stock solutions of compound in DMSO to 12 μL of acetonitrile. Individual inhibitor spiking solutions were prepared for CYP2D6 and CYP3A4 (8 μL of DMSO stock added to 12 μL of acetonitrile). Next added 400 μL of 0.2 mg/mL HLM to the assay wells and then added 2 μL of 400× test compound into the designated wells on ice. Next, added 200 μL of 0.2 mg/mL HLM to the assay wells and then added 1 μL of reference inhibitor solutions into the designated wells. The following solutions were added (in duplicate) to a 96-well assay plate on ice: The test compounds and reference inhibitors (quinidine for 2D6, ketoconazole for 3A4) were tested using the following experimental procedure:
10. Incubate the assay plate at 37° C. 5 min for 3A4, 10 min for 2D6.
11. Stop the reaction by adding 120 μL of ACN containing Internal Standard. For CYP3A4, the internal standard is 1′OH-midazolam-D4 (10 μM solution diluted to a final concentration of 0.1 μM by adding 100 μL internal standard stock to 10 mL ACN). For CYP2D6, the internal standard is 1-OH-Bufuralol-maleate-[D9] (49 μM solution diluted to a final concentration of 0.1 μM by adding 20 μL internal standard stock to 10 mL ACN).
The assessment on CYP isoform inhibition is as follows based on the assay results: if percentage of CYP inhibition is higher than 50%, indicates potent inhibition; if percentage of CYP inhibition is between 30-50%, indicates […]; if percentage of CYP inhibition is less than 30%, indicates slight or no inhibition. If the percentage of CYP inhibition is less than −30%, this indicates the compound may have some kind of activation of this isoform.

[2] = tested on: human erythroid progenitors (CFU-E, BFU-E); assay: Erythroid CFU assay in human bone marrow cells; assay type: cell-based; conditions: 10 μM, 14 days culture, human bone marrow cells
Experimental: (§1) Compounds were tested to evaluate the potential effects on human erythroid and myeloid progenitors using colony forming cell assays. Clonogenic progenitors of human erythroid (CFU-E, BFU-E), granulocyte-monocyte (CFU-GM) and multipotential (CFU-GEMM) lineages were assessed in a semi-solid methylcellulose-based media formulation containing rhlL-3 (10 ng/mL), rhGM-SCF (10 ng/mL), rhSCF (50 ng/mL) and Epo (3 U/mL).
(§2) Normal human bone marrow light density cells derived from normal bone marrow (NorCal Biologics, California) and qualified at ReachBio, were stored in the gaseous phase of liquid nitrogen (−152° C.) until required for the assay. On the day of the experiment, the cells were thawed rapidly, the contents of each vial was diluted in 10 mL of Iscove's modified Dulbecco's medium containing 10% fetal bovine serum (IMDM+10% FBS) and washed by centrifugation (approximately 1200 r.p.m. for 10 minutes, room temperature). The supernatant was discarded and the cell pellets resuspended in a known volume of IMDM+10% FBS. A cell count (3% glacial acetic acid) and viability assessment (trypan blue exclusion test) was performed for the bone marrow sample.
(§3) On the day of the experiment, the compounds were dissolved in DMSO to a stock concentration of 10 mM. Serial dilutions were prepared from the stock concentration to achieve concentrations of 2 and 0.4 mM. When added to the methylcellulose-based media at 1:1000 (v/v), the final test concentrations of 10, 2 and 0.4 μM were achieved. Additionally, 5-FU was evaluated at 1.0, 0.1 and 0.01 μg/mL.
(§4) Clonogenic progenitors of the human erythroid (CFU-E and BFU-E) and myeloid (CFU-GM) lineages were set up in the methylcellulose-based media formulations described above. All compounds were added to the medium to give the final desired concentrations (10, 2 and 0.4 μM). 5-Fluorouracil (Sigma Aldrich) was used as a positive control for progenitor proliferation (inhibition of colony growth) and was introduced to the human bone marrow cultures at 1.0, 0.1, and 0.01 μg/mL. Solvent control cultures (containing no compound but 0.1% DMSO) as well as standard controls (containing no compound and no DMSO) were also initiated.
(§5) Human myeloid and erythroid progenitor assays were initiated at 2.0×10^4 cells per culture. Following 14 days in culture, myeloid and erythroid colonies were assessed microscopically and scored by trained personnel. The colonies were divided into the following categories based on size and morphology: CFU-E, BFU-E, CFU-GM and CFU-GEMM.
(§6) The mean±one standard deviation of three replicate cultures was calculated for progenitors of each category (CFU-E, BFU-E, etc.). Two-tailed t-tests were performed to assess if there was a difference in the number of colonies generated between solvent control and treated cultures. Due to the potential subjectivity of colony enumeration, a p value of less than 0.01 is deemed significant. To calculate the concentration of 50% inhibition of colony growth (IC50) for each compound, a dose response curve was generated plotting the log of the compound concentration versus the percentage of control colony growth using XLfit software (IDBS). The concentration of 50% inhibition of colony growth (IC50) was calculated based on the sigmoid curve fit using Dose-Response, One-Site Model formula: y=A+[(B−A)/(1+((C/x)^D))], where A=the initial value (baseline response), B=maximum response, C=center (drug concentration that provokes a response halfway between A and B) and D=slope of the curve at midpoint. Further, plots and additional dose response curves were generated using GraphPad Prism 7.0.
(§7) Erythroid (CFU-E and BFU-E), myeloid (CFU-GM) and multi-potential (CFU-GEMM) colony enumeration was performed by trained personnel. The distribution of colony types as well as general colony and cellular morphology was analyzed. For statistical analysis colony numbers in compound treated cultures were compared to the solvent control cultures. […]

[3] = tested on: human myeloid progenitors (CFU-GM); assay: Myeloid CFU assay in human bone marrow cells; assay type: cell-based; conditions: 10 μM, 14 days culture, human bone marrow cells
Experimental: as §1, §2, §3, §4, §5, §6, §7

Row | Structure (SMILES) | inhibition at 10 min, 10 µM [1] [%] | CFU % Control remaining @ 10 μM Erythroid [2] [%] | CFU % Control remaining @ 10 μM Myeloid [3] [%] | inhibition of CYP2D6 (in words) [1]
1 | Nc1ccc(-c2cccs2)nc1NC(=O)N1Cc2cncnc2C1 [Comparator E] | 50 | 54 | 83 | significant inhibition
2 | COCc1cc2c(cn1)CN(C(=O)Nc1nc(-c3ccc(F)cc3F)ccc1N)C2 [Compound 1] | -1 | 57 | 86 | –
3 | Cc1ncc2c(n1)CN(C(=O)Nc1nc(-c3cccs3)ccc1N)C2 [Compound 2] | -5 | 27 | 59 | no significant inhibition

Other lines, results leading:

Row | inhibition at 10 min, 10 µM [1] [%] | CFU % Control remaining @ 10 μM Erythroid [2] [%] | CFU % Control remaining @ 10 μM Myeloid [3] [%] | inhibition of CYP2D6 (in words) [1] | Structure (SMILES)
4 | 34 | 0 | 0 | – | Nc1ccc(-c2ccc(F)cc2)cc1NC(=O)N1Cc2nccnc2C1 [Comparator A]
5 | 9 | 9 | 25 | – | Nc1ccc(-c2ccc(F)cc2)nc1NC(=O)N1Cc2nccnc2C1 [Comparator B]
6 | 0.2 | 20 | 20 | – | Nc1ccc(-c2cccs2)nc1NC(=O)N1Cc2nccnc2C1 [Comparator C]
7 | 85 | 47 | 84 | significant inhibition | Nc1ccc(-c2ccc(F)cc2)nc1NC(=O)N1Cc2cncnc2C1 [Comparator D]
